The text below walks through data of patent US20100239563A1 (priority 2001, published 2010).

Test [1] has as its system influenza A virus strain fowl plague virus A/Fpv/Bratislava/79. Type of test: cell-based.
For test [2], the system named is influenza A virus strain fowl plague virus A/Fpv/Bratislava/79 (H7N7). Type of test: cell-based.

`Oc1ccc(-c2nc(-c3ccc(F)cc3)c(-c3ccncc3)[nH]2)cc1` [SB202190, 4-(4-fluorophenyl)-2-(4-hydroxyphenyl)-5-(4-pyridyl) 1H-imidazole]: in test [1], the “virus multiplication vs cells not treated with SB202190” value is “significantly inhibited”.
For `N#CC(=C(N)Sc1ccccc1N)C(C#N)=C(N)Sc1ccccc1N` [U0126, 1,4-diamino-2,3-dicyano-1,4-bis(2-aminophenylthio)butadiene], in test [2], the “virus multiplication vs cells not treated with U0126” value is listed as “significantly inhibited”.
